Data as given in patent US20130029970A1 (priority 2009, published 2013).
Like-named read-outs stand apart in the source and are kept apart here.

Assays:
human CB1 (hCB1) = target: T1, human CB1 (hCB1) (Homo sapiens, UniProt P21554); experiment: 35S GTPγS binding assay, hCB1 agonist; type: biochemical
T1 construct: (cDNA clone) CNR01L000

human CB2 receptors = target: T2, human CB2 receptors (Homo sapiens, UniProt P34972); experiment: cAMP assay in HEK-293 cells, hCB2 agonist; type: cell-based
T2 construct: (cDNA clone) CNR0200000
T2 sequence (P34972 whole entry): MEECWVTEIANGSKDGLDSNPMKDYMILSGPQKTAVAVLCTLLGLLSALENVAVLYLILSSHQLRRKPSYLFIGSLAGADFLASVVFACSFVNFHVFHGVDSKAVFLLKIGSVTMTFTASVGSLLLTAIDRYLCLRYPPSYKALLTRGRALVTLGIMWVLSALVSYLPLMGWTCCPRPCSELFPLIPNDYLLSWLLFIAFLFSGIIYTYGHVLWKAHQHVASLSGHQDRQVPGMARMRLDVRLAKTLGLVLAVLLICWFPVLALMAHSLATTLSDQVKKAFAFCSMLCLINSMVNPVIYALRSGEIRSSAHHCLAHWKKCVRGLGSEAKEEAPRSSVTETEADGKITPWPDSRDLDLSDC
Method in brief: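 HEK-293 cells stably expressing human CB2, suspended at 1,500,000 cells/mL in HBSS with 10 mM HEPES and 0.1% fatty-acid-free BSA, exposed to test compound plus forskolin (90 uM in the 3× compound solution) for 30 min at 37° C.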

[1] = target: T3, recombinant human cannabinoid receptor CB1 (Homo sapiens, UniProt P21554); experiment: Cannabinoid receptor radioligand binding assay, [3H]-CP 55,940 displacement, hCB1
T3 construct: (cDNA clone) CNR01L000
T3 sequence (P21554 whole entry): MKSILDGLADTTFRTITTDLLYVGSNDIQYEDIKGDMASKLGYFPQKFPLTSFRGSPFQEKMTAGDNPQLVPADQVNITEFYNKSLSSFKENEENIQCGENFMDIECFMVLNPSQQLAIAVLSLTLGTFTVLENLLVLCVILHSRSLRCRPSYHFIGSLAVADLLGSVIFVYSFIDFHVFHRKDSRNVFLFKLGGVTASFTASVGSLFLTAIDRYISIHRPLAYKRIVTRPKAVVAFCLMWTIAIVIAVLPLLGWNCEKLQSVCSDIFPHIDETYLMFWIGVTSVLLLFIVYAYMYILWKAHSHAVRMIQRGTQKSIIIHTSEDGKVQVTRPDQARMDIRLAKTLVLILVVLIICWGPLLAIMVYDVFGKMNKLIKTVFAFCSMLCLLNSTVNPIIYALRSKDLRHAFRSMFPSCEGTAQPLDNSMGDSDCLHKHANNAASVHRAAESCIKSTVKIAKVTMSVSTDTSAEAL
Method in brief: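 Membranes from HEK-293 cells stably expressing human CB1, 2-10 μg protein, incubated 90 min at room temperature with 0.5 nM [3H]-CP 55,940 in Tris-HCl pH 7.5, MgCl2, EDTA and 0.1% fatty-acid-free BSA. Bound radioactivity counted after rapid filtration; nonspecific binding defined with 1 μM unlabeled CP 55,940.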

[2] = GTPγS agonist, HEK-293 membranes, read-out: hCB1 EC50 (GTPyS ag)

T1 sequence (P21554 whole entry): as above

Structure (SMILES) | EC50 (human CB1 (hCB1)) | EC50 (human CB2 receptors) | IC50 [1] | EC50 (human CB1 (hCB1); [2]) | EC50 (human CB2 receptors; inhibition of forskolin-stimulated cAMP, HEK-293 cells, read-out: hCB2 EC50 (cAMP ag))
Cc1c(Cl)c2cc(C(=O)c3cccc(Cl)c3Cl)sc2n1CCN1CCOCC1 [Compound 27, (4-chloro-5-methyl-6-(2-morpholinoethyl)-6H-thieno[2,3-b]pyrrol-2-yl)(2,3-dichlorophenyl)methanone] | 100 to 1000 nM | < 100 nM | < 100 nM | – | –
Cc1cc2cc(C(=O)c3cc(Cl)ccc3Cl)sc2n1CCN1CCOCC1 [Compound 35, (2,5-Dichlorophenyl)(5-methyl-6-(2-morpholinoethyl)-6H-thieno[2,3-b]pyrrol-2-yl)methanone] | – | < 100 nM | 100 to 1000 nM | 100 to 1000 nM | –
COc1ccc(C(=O)c2cc3cc(C)n(CCCNC(=O)C(F)(F)F)c3s2)cc1 [Compound 76, 2,2,2-Trifluoro-N-(3-(2-(4-methoxybenzoyl)-5-methyl-6H-thieno[2,3-b]pyrrol-6-yl)propyl)acetamide] | – | 100 to 1000 nM | 1000 to 10000 nM | < 100 nM | –
COc1ccc(C(=O)c2cc3cc(C)n(CCC(C)(C)O)c3s2)cc1 [Compound 77, (6-(3-Hydroxy-3-methylbutyl)-5-methyl-6H-thieno[2,3-b]pyrrol-2-yl)(4-methoxyphenyl)methanone] | – | 100 to 1000 nM | 1000 to 10000 nM | < 100 nM | –
Cc1ccc(C(=O)c2cc3cc(C)n(CCN4CCOCC4)c3s2)c(Cl)c1 [Compound 86, (2-Chloro-4-methylphenyl)(5-methyl-6-(2-morpholinoethyl)-6H-thieno[2,3-b]pyrrol-2-yl)methanone] | – | < 100 nM | 100 to 1000 nM | 1000 to 10000 nM | –
COc1ccc(C(=O)c2cc3cc(C)n(CCCN4CCOCC4)c3s2)cc1 [Compound 107, (4-Methoxyphenyl)(5-methyl-6-(3-morpholinopropyl)-6H-thieno[2,3-b]pyrrol-2-yl)methanone] | – | – | 100 to 1000 nM | 100 to 1000 nM | < 100 nM
COc1ccc(C(=O)c2cc3cc(C)n(CCN4CCOCC4)c3s2)c(Cl)n1 [Compound 137, (2-chloro-6-methoxypyridinyl-3-yl)(5-methyl-6-(2-morpholinoethyl)-6H-thieno[2,3-b]pyrrol-2-yl)methanone] | – | < 100 nM | 1000 to 10000 nM | 1000 to 10000 nM | –
COCCN(C)CCn1c(C)cc2cc(C(=O)c3ccc(OC)nc3)sc21 [Compound 157] | – | < 100 nM | 100 to 1000 nM | > 10000 nM | –
COc1ccc(C(=O)c2cc3cc(C)n(CC(OC)OC)c3s2)cn1 [Compound 161, (6-(2,2-dimethoxyethyl)-5-methyl-6H-thieno[2,3-b]pyrrol-2-yl)(6-methoxypyridin-3-yl)methanone] | – | 100 to 1000 nM | 100 to 1000 nM | > 10000 nM | –
Cc1cc2cc(C(=O)c3ccc(O)cc3F)sc2n1CCN1CCOCC1 [Compound 165, (2-fluoro-4-hydroxyphenyl)(5-methyl-6-(2-morpholinoethyl)-6H-thieno[2,3-b]pyrrol-2-yl)methanone] | – | < 100 nM | 100 to 1000 nM | > 10000 nM | –
COc1ccc(C(=O)c2cc3cc(C)n(CC4CCC(F)(F)CC4)c3s2)cn1 [Compound 170, (6-((4,4-difluorocyclohexyl)methyl)-5-methyl-6H-thieno[2,3-b]pyrrol-2-yl)(6-methoxypyridin-3-yl)methanone] | – | < 100 nM | < 100 nM | < 100 nM | –
